In patent US20260325533A1, “CDK INHIBITOR COMPOUNDS” (ALEKSIA THERAPEUTICS, INC., priority 2023, published 2026):
Read-outs that look alike come from different tables or passages of the source.

Columns and labels:
Assay type in all cases: biochemical
[1] = molecular target: CDK1/CCNB1 (Homo sapiens, UniProt P06493); assay: CDK1 homogeneous time-resolved fluorescence (HTRF) kinase assay; conditions: CDK1/CCNB
Procedure, shortened: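 Compounds, titrated 11 points in half-log steps typically from 10 μM, were incubated with enzyme for 20 min before ATP (1 mM) and ULight-labelled eIF4E-binding protein 1 peptide (50 nM) started a 60-min reaction at 23 °C. Phosphopeptide was detected by europium-antibody TR-FRET and IC50 values were derived.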

[2] = molecular target: CDK4/CCND3 (Homo sapiens, UniProt P11802); assay: CDK4 homogeneous time-resolved fluorescence (HTRF) kinase assay; conditions: CDK4/CCND
Procedure, shortened: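 TR-FRET read (665 nm, or 665/615 ratio) of 4E-BP1 Thr37/46 phosphorylation by 1.5 nM CDK4/CCND3 at 1 mM ATP, 50 nM ULight peptide, 1% DMSO. Reaction ran 60 min at 23 °C after 20 min compound–enzyme preincubation. IC50 from 11-point half-log dilutions, top 10 μM.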

[3] = molecular target: CDK6/CCND1 (Homo sapiens, UniProt Q00534); assay: CDK6 homogeneous time-resolved fluorescence (HTRF) kinase assay; conditions: CDK6/CCND
Procedure, shortened: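 Assay conditions: HEPES buffer containing 10 mM MgCl2, 1 mM EGTA, 2 mM DTT, 0.01% Tween 20; 1 nM CDK6/CCND1, 50 nM peptide substrate, 1 mM ATP. Detection after 60 min reaction used 2 nM europium antibody with 340 nm excitation. Potency fitted from half-log series, 11 points.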

[4] = molecular target: CDK2/CCNE1 (Homo sapiens, UniProt P24941); assay: CDK2 homogeneous time-resolved fluorescence (HTRF) kinase assay; conditions: CDK2/CCNE
Procedure, shortened: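 An HTRF format measures CDK2/CCNE1 (3 nM) phosphorylating a 4E-BP1 Thr37/46 peptide at high (1 mM) ATP. Reactions run one hour at 23 °C, then EDTA-quenched and probed with Eu-labelled phospho-specific antibody.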

[5] = >250 nM, read-out: CDK1/CCNB IC50 >250 nM
[6] = >250 nM, read-out: CDK4/CCND IC50, >250 nM
[7] = >250 nM, 1 mM ATP, read-out: CDK6/CCND IC50, >250 nM
[8] = x = IC50 >250 nM, read-out: CDK1/CCNB IC50 (>250 nM column)
[9] = x = IC50 >250 nM, read-out: CDK4/CCND IC50 (>250 nM column)
[10] = x = IC50 >250 nM, read-out: CDK6/CCND IC50 (>250 nM column)
[11] = x = IC50 25-250 nM, read-out: CDK2/CCNE IC50 (25-250 nM)
[12] = 25-250 nM marked x, read-out: CDK4/CCND IC50 25-250 nM
[13] = >250 nM marked x, read-out: CDK6/CCND IC50 >250 nM
[14] = <25 nM, read-out: CDK2/CCNE IC50 <25 nM
[15] = 25-250 nM, read-out: CDK2/CCNE IC50, 25-250 nM
[16] = x = IC50 <25 nM, read-out: CDK2/CCNE IC50 (<25 nM)
[17] = >250 nM marked x, read-out: CDK1/CCNB IC50 >250 nM
[18] = 25-250 nM marked x, read-out: CDK6/CCND IC50 25-250 nM
[19] = 25-250 nM marked x, read-out: CDK2/CCNE IC50 25-250 nM

CDK6/CCND1, sequence (Q00534 whole entry): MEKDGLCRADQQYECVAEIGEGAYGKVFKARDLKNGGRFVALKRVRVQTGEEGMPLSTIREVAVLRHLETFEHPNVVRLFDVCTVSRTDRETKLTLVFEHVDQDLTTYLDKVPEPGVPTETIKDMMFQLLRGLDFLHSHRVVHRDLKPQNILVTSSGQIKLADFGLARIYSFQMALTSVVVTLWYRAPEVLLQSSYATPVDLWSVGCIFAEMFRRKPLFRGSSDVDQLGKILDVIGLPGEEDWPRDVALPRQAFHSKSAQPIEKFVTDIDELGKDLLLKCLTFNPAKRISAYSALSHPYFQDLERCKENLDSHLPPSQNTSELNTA
CDK6/CCND1, sequence (P24385 whole entry partner): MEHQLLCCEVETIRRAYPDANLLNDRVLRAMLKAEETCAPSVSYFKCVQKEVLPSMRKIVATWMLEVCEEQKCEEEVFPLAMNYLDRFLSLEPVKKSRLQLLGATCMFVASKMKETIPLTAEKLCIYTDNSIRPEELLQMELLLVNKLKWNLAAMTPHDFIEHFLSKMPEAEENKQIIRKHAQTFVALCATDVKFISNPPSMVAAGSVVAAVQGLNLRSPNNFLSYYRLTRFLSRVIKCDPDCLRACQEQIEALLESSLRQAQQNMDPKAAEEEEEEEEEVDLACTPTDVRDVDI
CDK4/CCND3, sequence (P11802 whole entry): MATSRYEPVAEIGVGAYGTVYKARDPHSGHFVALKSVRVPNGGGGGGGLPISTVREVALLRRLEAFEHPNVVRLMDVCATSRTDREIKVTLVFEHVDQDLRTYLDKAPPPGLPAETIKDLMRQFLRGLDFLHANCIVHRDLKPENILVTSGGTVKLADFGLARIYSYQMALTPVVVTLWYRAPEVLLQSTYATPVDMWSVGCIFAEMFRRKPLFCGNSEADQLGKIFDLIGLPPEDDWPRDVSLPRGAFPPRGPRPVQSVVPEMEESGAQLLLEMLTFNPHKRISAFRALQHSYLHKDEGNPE
CDK4/CCND3, sequence (P30281 whole entry partner): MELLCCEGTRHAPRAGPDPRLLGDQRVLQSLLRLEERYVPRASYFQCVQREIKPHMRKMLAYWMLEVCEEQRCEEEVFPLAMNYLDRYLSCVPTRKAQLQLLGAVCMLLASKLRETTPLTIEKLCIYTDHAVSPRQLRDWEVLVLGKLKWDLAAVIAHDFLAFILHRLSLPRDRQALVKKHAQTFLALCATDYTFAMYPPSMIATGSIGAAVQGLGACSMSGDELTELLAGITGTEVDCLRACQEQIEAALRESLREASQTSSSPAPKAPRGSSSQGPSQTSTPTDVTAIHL
CDK1/CCNB1, sequence (P06493 whole entry): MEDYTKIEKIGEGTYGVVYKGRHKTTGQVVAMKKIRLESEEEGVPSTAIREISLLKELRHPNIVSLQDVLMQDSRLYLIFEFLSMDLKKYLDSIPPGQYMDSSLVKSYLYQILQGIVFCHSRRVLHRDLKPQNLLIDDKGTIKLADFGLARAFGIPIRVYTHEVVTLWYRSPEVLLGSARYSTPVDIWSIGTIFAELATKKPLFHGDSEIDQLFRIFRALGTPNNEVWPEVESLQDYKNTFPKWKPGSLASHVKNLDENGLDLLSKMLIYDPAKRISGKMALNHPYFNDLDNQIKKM
CDK1/CCNB1, sequence (P14635 whole entry partner): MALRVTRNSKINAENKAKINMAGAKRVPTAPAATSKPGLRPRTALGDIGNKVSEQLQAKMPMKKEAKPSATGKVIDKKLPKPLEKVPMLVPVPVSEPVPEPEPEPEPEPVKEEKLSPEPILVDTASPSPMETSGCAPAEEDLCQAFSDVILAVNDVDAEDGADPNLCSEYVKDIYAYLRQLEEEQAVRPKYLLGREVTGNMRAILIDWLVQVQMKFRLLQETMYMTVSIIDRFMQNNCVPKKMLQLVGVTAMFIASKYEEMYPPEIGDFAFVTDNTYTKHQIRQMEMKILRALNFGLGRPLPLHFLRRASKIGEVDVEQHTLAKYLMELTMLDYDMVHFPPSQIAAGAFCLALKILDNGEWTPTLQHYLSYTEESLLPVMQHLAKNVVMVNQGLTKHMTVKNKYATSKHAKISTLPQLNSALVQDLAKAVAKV

| Structure (SMILES) | IC50 [1, 5] [nM] | IC50 [2, 6] [nM] | IC50 [3, 7] [nM] | IC50 [1, 8] [nM] | IC50 [2, 9] [nM] | IC50 [3, 10] [nM] | IC50 [4, 11] [nM] | other results |
| --- | --- | --- | --- | --- | --- | --- | --- | --- |
| Cc1nc(-c2ccc(S(=O)(=O)Nc3ccc(Nc4cc5c(-c6ccc7c(cnn7CC(C)(C)O)c6C)nccc5cn4)cc3)s2)cs1 [Ex 782, N-(4-((5-(1-(2-hydroxy-2-methylpropyl)-4-methyl-1H-indazol-5-yl)-2,6-naphthyridin-3-yl)amino)phenyl)-5-(2-methylthiazol-4-yl)thiophene-2-sulfonamide] | > 250 | > 250 | > 250 |  |  |  |  | IC50 ([4]; >250 nM, read-out: CDK2/CCNE IC50, >250 nM): > 250 nM |
| CN1Cc2cc(-c3nccc4cnc(Nc5ccc(S(C)(=O)=O)cc5)cc34)ccc2CC1=O [Ex 644, 2-methyl-7-(7-((4-(methylsulfonyl)phenyl)amino)-2,6-naphthyridin-1-yl)-1,4-dihydroisoquinolin-3(2H)-one] |  |  |  | > 250 | > 250 | > 250 | 25 to 250 |  |
| Cc1c(-c2nccc3cnc(Nc4ccc(NS(=O)(=O)c5ccc(Cl)cn5)cc4)cc23)ccc2c1cnn2CC(C)(C)O [Ex 777, 5-chloro-N-(4-((5-(1-(2-hydroxy-2-methylpropyl)-4-methyl-1H-indazol-5-yl)-2,6-naphthyridin-3-yl)amino)phenyl)pyridine-2-sulfonamide] | > 250 | > 250 | > 250 |  |  |  |  | IC50 ([4]; <25 nM, read-out: CDK2/CCNE IC50, <25 nM): < 25 nM |
| Cc1cc(S(C)(=N)=O)ccc1Nc1cc2c(C#Cc3ccc4c(c3)NC(=O)C43CC3)nccc2cn1 (single isomer, unassigned) [Ex 326, 6'-((7-((2-methyl-4-(S-methylsulfonimidoyl)phenyl)amino)-2,6-naphthyridin-1-yl)ethynyl)spiro[cyclopropane-1,3'-indolin]-2'-one] |  |  |  |  |  |  |  | IC50 ([1]; 25-250 nM marked x, read-out: CDK1/CCNB IC50 25-250 nM): 25 to 250 nM; IC50 [2, 12]: 25 to 250 nM; IC50 [3, 13]: > 250 nM; IC50 [4, 14]: < 25 nM |
| CCS(=O)(=O)c1ccc(Nc2cc3c(C#Cc4ccc5c(c4)NC(=O)C54CC4)nccc3cn2)c(OC)c1 [Ex 357, 6'-((7-((4-(ethylsulfonyl)-2-methoxyphenyl)amino)-2,6-naphthyridin-1-yl)ethynyl)spiro[cyclopropane-1,3'-indolin]-2'-one] |  |  |  | > 250 | > 250 | > 250 |  | IC50 [4, 16]: < 25 nM |
| COC(=O)c1n[nH]c2cc(-c3nccc4cnc(Nc5ccc(S(C)(=O)=O)cc5)cc34)ccc12 [Ex 605, methyl 6-(7-((4-(methylsulfonyl)phenyl)amino)-2,6-naphthyridin-1-yl)-1H-indazole-3-carboxylate] |  |  |  | > 250 | > 250 |  |  | IC50 ([3]; x = IC50 25-250 nM, read-out: CDK6/CCND IC50 (25-250 nM)): 25 to 250 nM; IC50 [4, 16]: < 25 nM |
| Cc1c(-c2nccc3cnc(Nc4ccc(S(=O)(=O)NC5CCCCC5)cc4)cc23)ccc2c1cnn2CC(C)(C)O [Ex 758, N-cyclohexyl-4-((5-(1-(2-hydroxy-2-methylpropyl)-4-methyl-1H-indazol-5-yl)-2,6-naphthyridin-3-yl)amino)benzenesulfonamide] | > 250 | > 250 | > 250 |  |  |  |  | IC50 [4, 15]: 25 to 250 nM |
| CS(=O)(=O)N1CCC(Nc2cc3c(-c4cccc(N)c4)nccc3cn2)CC1 [Ex 72, 5-(3-aminophenyl)-N-(1-(methylsulfonyl)piperidin-4-yl)-2,6-naphthyridin-3-amine] |  |  |  |  |  |  |  | IC50 [1, 17]: > 250 nM; IC50 [2, 12]: 25 to 250 nM; IC50 [3, 18]: 25 to 250 nM; IC50 [4, 14]: < 25 nM |
| Nc1ncccc1C#Cc1nccc2cnc(Nc3ccc(S(=O)(=O)C4CCC4)cc3)cc12 [Example 398, 5-((2-aminopyridin-3-yl)ethynyl)-N-(4-(cyclobutylsulfonyl)phenyl)-2,6-naphthyridin-3-amine] |  |  |  | > 250 | > 250 | > 250 | 25 to 250 |  |
| CS(=O)(=O)N1CCC(Nc2cc3c(-c4ccc(O)cc4)nccc3cn2)CC1 [Ex 68, 4-(7-((1-(methylsulfonyl)piperidin-4-yl)amino)-2,6-naphthyridin-1-yl)phenol] |  |  |  |  |  |  |  | IC50 [1, 17]: > 250 nM; IC50 [2, 12]: 25 to 250 nM; IC50 ([3]; <25 nM, read-out: CDK6/CCND IC50 <25 nM): < 25 nM; IC50 [4, 14]: < 25 nM |
| CS(=O)(=O)c1ccc(Nc2cc3c(ccnc3[C@H]3CC[C@H](C(=O)NC4CCC4)CC3)cn2)cc1 [Ex 200, (1r,4r)-N-cyclobutyl-4-(7-((4-(methylsulfonyl)phenyl)amino)-2,6-naphthyridin-1-yl)cyclohexane-1-carboxamide] |  |  |  |  |  |  |  | IC50 [1, 17]: > 250 nM; IC50 ([2]; >250 nM marked x, read-out: CDK4/CCND IC50 >250 nM): > 250 nM; IC50 [3, 13]: > 250 nM; IC50 [4, 19]: 25 to 250 nM |
| CS(=O)(=O)c1ccc(Nc2cc3c(C#C[C@H]4CC[C@H](N)CC4)nccc3cn2)cc1 [Ex 247, 5-(((1r,4r)-4-aminocyclohexyl)ethynyl)-N-(4-(methylsulfonyl)phenyl)-2,6-naphthyridin-3-amine] |  |  |  |  |  |  |  | IC50 [1, 17]: > 250 nM; IC50 [2, 12]: 25 to 250 nM; IC50 [3, 18]: 25 to 250 nM; IC50 [4, 19]: 25 to 250 nM |

Second part, led by results:

| IC50 [1, 5] [nM] | IC50 [2, 6] [nM] | IC50 [3, 7] [nM] | IC50 [1, 8] [nM] | IC50 [2, 9] [nM] | IC50 [3, 10] [nM] | IC50 [4, 11] [nM] | Structure (SMILES) | other results |
| --- | --- | --- | --- | --- | --- | --- | --- | --- |
|  |  |  | > 250 | > 250 | > 250 | 25 to 250 | CS(=O)(=O)c1ccc(Nc2cc3c(C#Cc4cccnc4)nccc3cn2)cc1 [Ex 623, N-(4-(methylsulfonyl)phenyl)-5-(pyridin-3-ylethynyl)-2,6-naphthyridin-3-amine] |  |
| > 250 | > 250 | > 250 |  |  |  |  | Cc1cc(C#Cc2nccc3cnc(Nc4ccc(S(C)(=O)=O)cc4)cc23)sn1 [Ex 899, 5-((3-methylisothiazol-5-yl)ethynyl)-N-(4-(methylsulfonyl)phenyl)-2,6-naphthyridin-3-amine] | IC50 [4, 15]: 25 to 250 nM |
|  |  |  | > 250 | > 250 | > 250 | 25 to 250 | Cc1c(C#N)cccc1C#Cc1nccc2cnc(Nc3ccc(S(C)(=O)=O)cc3)cc12 [Ex 564, 2-methyl-3-((7-((4-(methylsulfonyl)phenyl)amino)-2,6-naphthyridin-1-yl)ethynyl)benzonitrile] |  |
|  |  |  | > 250 | > 250 | > 250 | 25 to 250 | CS(=O)(=O)c1ccc(Nc2cc3c(C#Cc4cccc5cn[nH]c45)nccc3cn2)cc1 [Ex 621, 5-((1H-indazol-7-yl)ethynyl)-N-(4-(methylsulfonyl)phenyl)-2,6-naphthyridin-3-amine] |  |
|  |  |  | > 250 | > 250 | > 250 | 25 to 250 | CS(=O)(=O)c1ccc(Nc2cc3c(-c4ccc5[nH]ncc5c4)nccc3cn2)cc1 [Ex 601, 5-(1H-indazol-5-yl)-N-(4-(methylsulfonyl)phenyl)-2,6-naphthyridin-3-amine] |  |
| > 250 | > 250 | > 250 |  |  |  |  | CS(=O)(=O)c1cccc(Nc2cc3c(C#Cc4ccc(C#N)cc4)nccc3cn2)c1 [Ex 942, 4-((7-((3-(methylsulfonyl)phenyl)amino)-2,6-naphthyridin-1-yl)ethynyl)benzonitrile] | IC50 [4, 15]: 25 to 250 nM |
| > 250 | > 250 | > 250 |  |  |  |  | Cc1cnc(C#Cc2nccc3cnc(Nc4ccc(S(C)(=O)=O)cc4)cc23)[nH]1 [Ex 901, 5-((5-methyl-1H-imidazol-2-yl)ethynyl)-N-(4-(methylsulfonyl)phenyl)-2,6-naphthyridin-3-amine] | IC50 [4, 15]: 25 to 250 nM |
|  |  |  | > 250 | > 250 | > 250 | 25 to 250 | CS(=O)(=O)c1ccc(Nc2cc3c(C#Cc4ccc5c(C#N)c[nH]c5c4)nccc3cn2)cc1 [Ex 532, 6-((7-((4-(methylsulfonyl)phenyl)amino)-2,6-naphthyridin-1-yl)ethynyl)-1H-indole-3-carbonitrile] |  |
